Common to all, as to assay type: cell-based, SD rats
Assay [1] concerns NSCs. Description: Ki67 immunocytochemistry, NSC proliferation. The note with it: 3 days, mean ± SD. The method, then: (§1) NSCs survival and growth were analyzed by using cell counting kit‐8 (#CK04, Dojindo, CCK‐8). NSCs were randomly allocated in the Control, TAT‐scramble, TAT‐KIR, IL‐6, and TAT‐KIR+IL6 groups. All NSCs seeded into 96‐well plates at 5 × 10^4 cells/ml and cultured in growth medium for 24 h. IL‐6 in the concentration of 100 ng/ml was applied to mimic inflammatory condition. Thirty minutes later, TAT‐KIR or TAT‐scramble was added into the culture system. Cell viability of each group was observed by Universal Microplate Spectrophotometer (QuantTM, BioTek) at first, third, and fifth day after peptide administration (Figure 3A). Optical density (OD) values at 450 nm were measured. Immunocytochemistry staining with ki67 (#ab16667, Abcam, 1:300) was used to assess NSC proliferation. Cell cycles were analyzed by FACS at third day after peptide administration. The rates of cells in G0/G1, S, and G2/M were measured, and the proliferation index (PI) {PI = (S + G2/M)/([…] + S + G2/M) × 100%} was calculated, respectively. In each independent experiment, the procedures were carried out in triplicate.

For assay [2], the system named is NSCs. In words: Cell cycle analysis by FACS, proliferation index. The note with it: third day, mean ± SD, n = 3. The method, then: as §1
In general terms: In flow cytometry, cells or beads pass a laser one at a time.

Assay [3] deals with NSCs. Description: NSCs differentiation, immunostaining of GFAP and β tubulin III positive cells. The note with it: 7 DIV, mean ± SD, n = 9. As for the experimental part:
NSCs at 1 × 10^5 cells/ml were seeded into 24‐well plates allocated randomly in Control, TAT‐KIR, IL‐6, and TAT‐KIR+IL6 groups. After 24 h culture with differentiation media, IL‐6 and TAT‐KIR were added into the medium as above order and reapplied every other day (Figure 4A). Cells were harvested at 7 DIV. Immunocytochemical staining was performed with different antibodies, including GFAP and β Tublin III. […] Then the numbers of GFAP positive and β Tubulin III positive cells were counted, and the percentages of differentiated cells were calculated by using Image J (version 1.61).

A further assay deals with p‐STAT3. Description: Western blotting, p-STAT3/STAT3. The note with it: for rate of p-STAT3 to STAT3: differentiation medium, 7 days, mean ± SD, n = 3. As for the experimental part:
(§2) NSCs at 1 × 10^6 cells/ml in 6‐well plate were treated with IL‐6 and TAT‐KIR as above. Cells were harvested at 3 h, 6 h, 12 h, 24 h, or 7 days after treatment. Cells were suspended in lysis buffer containing 150 μl RIPA (#89900, Pierce) protease and phosphatase inhibitor cocktail (#4693159001 and 04906845001, Roche). Cell lysates were incubated on ice for 20 min and centrifuged at 12,000 rpm for 15 min at 4°C. The proteins in supernatant were separated by electrophoresis with 10%–12% sodium dodecyl sulfate polyacrylamide gel (SDS‐PAGE) and then transferred onto 0.22 μm polyvinylidene difluoride membranes (PVDF; #IPVH00010, Millipore). The membranes were blocked in 5% BSA dissolved in Tris‐buffered saline containing 0.1% Tween‐20 for 2 h at room temperature and then were incubated overnight at 4°C with primary antibodies, including GFAP (#ab7260, Abcam, 1:1000), β Tublin III (#MAB1637, Millipore, 1:1000), and STAT3, p‐STAT3, P38, p‐P38, ERK1/2, p‐ERK1/2, AKT, p‐AKT, JNK2, p‐JNK2(#4904, 9145, 8690, 4511, 4695, 9101, 4685, 4060, 9258, 4668, Cell Signaling, all in 1:1000) and β‐actin (#A01263, Boster Biological Technology, 1:20,000). After washing, the membranes were incubated with the secondary antibodies (HRP conjugated anti‐rabbit or anti‐mouse IgG) for 2 h at room temperature. The membranes were visualized by an enhanced chemiluminescence (ECL) kit. All data were analyzed with Image J (version 1.61).

The next assay concerns GFAP. Description: Western blotting, GFAP expression. The note with it: mean ± SD, n = 3. The method, then: as §2, with “The membranes were visualized by an enhanced chemiluminescence (ECL) kit.” left out
Background: In western blotting, separated proteins are transferred to a membrane and probed.

A further assay deals with β tubulin III. In words: Western blotting, β tubulin III expression. The note with it: mean ± SD, n = 3. The method, then: as §2, with “The membranes were visualized by an enhanced chemiluminescence (ECL) kit.” left out
The next assay has as its system p‐ERK1/2. Description: Western blotting, p-ERK1/2 / ERK1/2. The note with it: mean ± SD, n = 3. The method, then: as §2, with “The membranes were visualized by an enhanced chemiluminescence (ECL) kit.” left out
The subject of the next assay is p‐JNK2. Description: Western blotting, p-JNK2/JNK2. The note with it: mean ± SD, n = 3. The method, then:
as §2

For another assay, the system named is p‐AKT. In words: Western blotting, p-AKT/AKT. The note with it: for rate of p-AKT to AKT: mean ± SD, n = 3. The method, then:
as §2

Where [4] appears, read: substance alone, growth medium, IL-6 100 ng/ml, TAT-KIR 3 μM, n = 9 figures from three experiments.
Setting [5] is: substance alone, PI = (S + G2/M)/(all phases) × 100%.
[6] abbreviates: substance alone, differentiation medium.
The mark [7] stands for this setting: substance alone, 7 days differentiation.
Setting [8] is: substance alone, 3 h after treatment.
[9] abbreviates: TAT-KIR together with IL-6 100 ng/ml.
Where [10] appears, read: TAT-KIR together with IL-6, treatment for 3 h.
The mark [11] stands for this setting: TAT-KIR together with IL-6, 7 days differentiation.

Take “IL‐6: inflammatory cytokine, 100 ng/ml applied to mimic inflammatory condition [reference compound]”: the “percentage of Ki67 positive proliferating cells (Ki67/DAPI)” value in the assay on NSCs [1] (setting [4]) turned out to be 54.33 ± 10.29%. The “proliferation index (PI)” value in the assay on NSCs [2] (setting [5]) came to 34.61 ± 4.12%. Besides, in the assay with NSCs [2] (substance alone), the “percentage of cells in G0/G1 phase” value is 65.39 ± 4.12% and the “percentage of cells in S phase” value was 28.14 ± 2.79%. For the same substance, in the assay with NSCs [3] (setting [6]), the “percentage of GFAP positive cells (astrocytic differentiation)” value stood at 45.72 ± 7.50% and the “percentage of β tubulin III positive cells (neuronal differentiation)” value is reported as 32.33 ± 5.68%. Moreover, the “rate of p-STAT3 to STAT3” value with p‐STAT3 (substance alone) is given as 0.88 ± 0.093. Moreover, in the assay on GFAP (setting [7]), the “GFAP expression (Western blotting)” value is 1.30 ± 0.127. In addition, in the assay with β tubulin III (setting [7]), the “β tubulin III expression (Western blotting)” value stood at 1.22 ± 0.044. In addition, the “rate of p-ERK1/2 to ERK1/2” value with p‐ERK1/2 (setting [7]) is 0.75 ± 0.070. In the assay with p‐JNK2 (setting [8]), the p-JNK/JNK turned out to be 0.54 ± 0.056. Moreover, the p-JNK/JNK in the assay on p‐JNK2 (substance alone, 6 h after treatment) was found to be 0.67 ± 0.062. Also, in the assay with p‐JNK2 (setting [7]), the “rate of p-JNK2 to JNK2” value was 0.63 ± 0.049. Further, in the assay on p‐AKT (setting [7]), the “rate of p-AKT to AKT” value is reported as 1.05 ± 0.081.
For the substance RKKRRQRRR‐LR‐LKTFSSKSEYQL‐V [TAT‐KIR], the “percentage of Ki67 positive proliferating cells (Ki67/DAPI)” value is 41.33 ± 7.72% in the assay with NSCs [1] (TAT-KIR 3 μM applied together with IL-6 100 ng/ml, n = 9) and 20.67 ± 3.74% in the assay with NSCs [1] (setting [4]). The results for the “percentage of cells in G0/G1 phase” value in the assay on NSCs [2] (setting [9]) and with NSCs [2] (substance alone) were 73.18 ± 3.04% and 85.66 ± 1.98%, respectively. The “percentage of cells in S phase” value in the assay with NSCs [2] (setting [9]) is 19.31 ± 3.32%; in the assay with NSCs [2] (substance alone), 9.56 ± 0.22%. For the same substance, the “proliferation index (PI)” value in the assay on NSCs [2] (setting [9]) was 26.82 ± 3.04%; in the assay on NSCs [2] (setting [5]), 14.34 ± 1.98%. Moreover, the results for the “percentage of GFAP positive cells (astrocytic differentiation)” value in the assay on NSCs [3] (setting [9]) and with NSCs [3] (setting [6]) were 36.78 ± 6.81% and 30.67 ± 4.66%, respectively. The “percentage of β tubulin III positive cells (neuronal differentiation)” value in the assay on NSCs [3] (setting [9]) is listed as 30.33 ± 4.39%; with NSCs [3] (setting [6]), 26.78 ± 4.79%. In addition, the “rate of p-STAT3 to STAT3” value in the assay on p‐STAT3 (setting [9]) is listed as 0.61 ± 0.025; in the assay on p‐STAT3 (substance alone) it was “did not affect”. In addition, in the assay with p‐STAT3 (setting [10]), the “p-STAT3 expression of IL-6-induced NSCs” value is listed as “dramatically reduced”. The “GFAP expression (Western blotting)” value in the assay on GFAP (setting [11]) is reported as 0.88 ± 0.091. In the assay with β tubulin III (setting [11]), the “β tubulin III expression (Western blotting)” value is 1.21 ± 0.025. Besides, the “rate of p-ERK1/2 to ERK1/2” value with p‐ERK1/2 (setting [11]) is reported as 0.68 ± 0.041. In addition, the “rate of p-JNK2 to JNK2” value with p‐JNK2 (setting [11]) was 0.63 ± 0.042; in the assay on p‐JNK2 (setting [7]), “increased trend”. The p-JNK/JNK in the assay with p‐JNK2 (setting [8]) came to 0.30 ± 0.040; in the assay with p‐JNK2 (substance alone, 12 h after treatment), 0.50 ± 0.090. The “rate of p-AKT to AKT” value in the assay on p‐AKT (setting [11]) came out at 0.87 ± 0.037. The “p-AKT expression of IL-6-induced NSCs” value with p‐AKT (setting [10]) is “dramatically reduced”.

The values above are taken from publication PMC9804055, “Kinase inhibit region of SOCS3 attenuates IL6‐induced proliferation and astrocytic differentiation of neural stem cells via cross talk between signaling pathways” (CNS Neuroscience & Therapeutics, 2022).
